The results in this text go back to patent US7705025B2, “Histamine H3 receptor agents, preparation and therapeutic uses” (Eli Lilly and Company, priority 2004, dated 2010).

One may read the Ki as the dissociation constant of the complex between target and ligand, obtained from inhibition or displacement.

In the experiment the target is T1, human histamine 3 receptor (Homo sapiens, UniProt Q9Y5N1).
T1 construct: expressed in transfected cells; membranes
The experiment can be described thus: H3R binding assay (competitive inhibition SPA, [3H] α methylhistamine). Particulars: membranes of HEK293 clone H3R8. The source says:
The compounds of the present invention can readily be evaluated by using a competitive inhibition Scintillation Proximity Assay (SPA) based on a H3R binding assay using [3H] α methylhistamine as ligand. Stable cell lines, including but not limited to HEK can be transfected with cDNA coding for H3R to prepare membranes used for the binding assay. The technique is illustrated below (Preparation of Histamine Receptor Subtype Membranes) for the histamine receptor subtypes.
cDNA for the human histamine 1 receptor (H1R) was cloned into a mammalian expression vector containing the CMV promoter (pcDNA3.1(+), Invitogen) and transfected into HEK293 cells using the FuGENE Tranfection Reagent (Roche Diagnostics Corporation). Transfected cells were selected using G418 (500 μ/mL). Colonies that survived selection were grown and tested for histamine binding to cells grown in 96-well dishes using a scintillation proximity assay (SPA) based radioligand binding assay. Briefly, cells, representing individual selected clones, were grown as confluent monolayers in 96-well dishes (Costar Clear Bottom Plates, #3632) by seeding wells with 25,000 cells and growing for 48 hours (37° C., 5% CO2). […] Plates were counted in a Wallac Trilux 1450 Microbeta scintillation counter. […]
cDNA for the human histamine 3 receptor was cloned and expressed as described in (A. Preparation H1R membranes), above. […]

T1 sequence (Q9Y5N1 whole entry): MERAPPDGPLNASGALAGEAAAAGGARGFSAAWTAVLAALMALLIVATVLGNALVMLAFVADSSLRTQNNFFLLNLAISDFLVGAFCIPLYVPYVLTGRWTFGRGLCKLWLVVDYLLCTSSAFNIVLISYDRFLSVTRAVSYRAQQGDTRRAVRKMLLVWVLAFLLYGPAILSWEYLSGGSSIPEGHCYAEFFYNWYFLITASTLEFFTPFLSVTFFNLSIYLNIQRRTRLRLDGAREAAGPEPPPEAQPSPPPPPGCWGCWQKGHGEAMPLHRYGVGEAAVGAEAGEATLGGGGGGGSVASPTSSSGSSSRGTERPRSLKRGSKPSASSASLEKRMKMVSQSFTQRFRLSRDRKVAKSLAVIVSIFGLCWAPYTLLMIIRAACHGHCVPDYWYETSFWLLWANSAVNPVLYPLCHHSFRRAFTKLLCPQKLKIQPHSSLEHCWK

For the compound `O=C(c1ccc(-c2cccs2)nc1)N1CCC[C@H]1CN1CCCC1`, the Ki was determined as 13.8 nM.
`O=C(c1ccc(-c2nc(-c3cccnc3)cs2)cc1)N1CCC[C@H]1CN1CCCC1`: the inhibitory constant (Ki) came out at 3.1 nM.
